“And” between values parts separate entries of the source, which are not always exact repeats. Identical values can stand only once. Like-named read-outs stand apart in the source and are kept apart here.
Experiments:
[1] = high concentrations; cited from earlier work
[2] = test system: humans with Eustachian tube dysfunction; settings: cited from earlier work
[3] = test system: Eustachian tube function in rat model; settings: topical application; cited from earlier work
[4] = test system: human patients suffering from secondary Meniere's disease (activated cervical sympathetic nervous system, mild Eustachian tube dysfunction); assay: Clinical treatment of secondary Meniere's disease patients with oral betahistine, electrocochleography (ECochG) SP/AP amplitude ratio and symptoms; type: in vivo
Description: Patients, aged 19-70 years, have undergone baseline testing to determine SP/AP amplitude ratio using ECochG in Meniere's disease patients before the start of study treatment. The effect on SP/AP amplitude ratio was evaluated after a predetermined period of treatment with betahistine or a pharmaceutically acceptable salt.
Patients were seated in a swivel chair and the chair rotated while the patient's head was stabilized. Effect of rotational movement was observed and pupil enlargement a determinant of secondary Meniere's disease.
Dose levels included 16 mg of betahistine three time daily for predetermined period. 8 mg dose twice daily thereafter for a second predetermined period.
Patient studies comprise a range of dosing regimens including tablets, powders, sprays. In present studies unless otherwise stated each dose was administered in a tablet form in the morning taken after food.
Route of Administration can include oral and topical delivery. In the present studies unless otherwise stated route of administration was oral delivery.
Audiological evaluations were performed at specified intervals to evaluate the efficacy of Tests performed by physician or qualified audiologist. ECochG was performed at specified intervals by a physician specialist. Patient reported outcomes by self-administered questionnaire included the VSS (Yardley et al. 2004) and the TFI (Meikle et al. 2011). These were scored by study personnel.
Patient was started on oral dosage form of betahistine 16 mg three times daily (tds) for two weeks and reduced to 8 mg once daily thereafter for two months.

[5] = test system: eustachian tube function in "normal" volunteers; settings: cited from earlier work; for effect on eustachian tube function (tympanometry): "normal" volunteers, nasal application
[6] = patient, review at two months of oral betahistine
[7] = patient, two months into oral betahistine treatment

## CNCCc1ccccn1 [betahistine]
[1]
  toxicity: nontoxic
[2]
  result versus placebo: no greater result than a placebo
[3]
  Eustachian tube function: improved
[4]; all cases of secondary MD treated
  elevated SP/AP ratio indicating endolymphatic hydrops: normalized
[4]; patient, after treatment (before treatment 28.6%)
  Left Ear SP/AP Ratio, Average Ratio: Average Ratio of 16%
[4]; patient, after treatment, single traces
  Right Ear SP/AP Ratio: 9% and 18%
[4]; [6]
  repeat electrocochleograms: returned to normal levels
  symptoms at review: improved significantly
[4]; [7]
  repeat electrocochleograms: returned to normal levels
  symptoms at review: improved significantly
[4]; patients suffering from secondary MD
  treatment outcomes: invariably improved treatment outcomes
[4]; patients with activated cervical sympathetic nervous system and mild Eustachian tube dysfunction
  Eustachian tube function: facilitation of Eustachian tube function
[5]; at best
  effect on eustachian tube function (tympanometry): no effect
[5]; higher dosages
  effect on eustachian tube function (tympanometry): Eustachian tube function became worse
[5]; volunteers found to have mild Eustachian tube dysfunction
  mild Eustachian tube dysfunction: not improved

Source: patent publication US11116719B2, “Methods of treating Meniere's disease” (priority 2017, dated 2021)
